Entries after “also recorded” stand apart in the source; their conditions may differ. Residues, ends and D or L forms follow the SMILES beside them.
What was measured:
[1] = Absorption and systemic toxicity in animals, FITC labeling; format: in vivo
[2] = tested on: Beagle dogs; assay: Toxicity studies in Beagle dogs; format: in vivo, dog
From the text: […] […] Any alterations in clinical pathology profiles were considered coincidental in nature. No alterations in absolute or relative organ weight data were detected.

[3] = tested on: healthy adults; assay: Multi-dose safety trial in healthy adults (CLIN1001-003); format: in vivo, human; conditions: 24 healthy adults, 250 μg, 1, or 4 mg or placebo three times a day
From the text: The multi-dose trial was a double-blind, placebo controlled, randomized trial of 24 healthy adults. […] Reported AEs were all mild and headache was the most common AE.

[4] = tested on: human peripheral lymphocytes; assay: In vitro chromosome aberration study; conditions: up to 1200 μg, with and without metabolic activation
[5] = tested on: rabbits; assay: Cardiovascular effects in unconscious female rabbits; format: in vivo, rabbit; conditions: intravenous, doses up to 1 mg/kg
From the text: (§1) Two safety pharmacology studies for cardiotoxicity effects have been performed.

[6] = tested on: rats; assay: Toxicity studies in rats; format: in vivo, rat
From the text: Toxicity studies have been performed in rats and Beagle dogs. […] Any alterations in clinical chemistry, hematology, coagulation, urinalysis and organ weight data were considered coincidental based on absence of dose-response relationships and absence of histopathological changes.

[7] = tested on: healthy adults; assay: Single dose safety trial in healthy adults (CLIN1001-001); format: in vivo, human
From the text: The single dose trial was a double-blind, placebo controlled, randomized trial of 24 healthy adults. […] All AEs reported in this study resolved without concomitant therapy. Headache was the most common AE experienced, reported one time each by 3 (13%) subjects.

[8] = tested on: Celiac Disease subjects; assay: Phase IIa multiple dose POC study (CLIN1001-004), safety
From the text: Study drug will be dispensed to subjects for fourteen (14) days of treatment. Study drug will be administered three times a day. […] Gluten or gluten placebo will be taken during each meal. Subjects will remain on their gluten-free diet throughout the duration of the trial.
All adverse events reported during the study will be listed, documenting course, severity, and outcome. Adverse events will be summarized by treatment, the MedDRA system organ class, and maximum severity. Laboratory parameters, vital signs, EKG assessments, and physical exam results will be summarized with descriptive statistics as appropriate.

[9] = biological target: T1, potassium selective IKr current (hERG) (Homo sapiens, UniProt Q12809); assay: hERG test; format: cell-based; conditions: up to 1 ng/mL, stably transfected, normoxic conditions
T1 construct: expressed in transfected cells; host or cells: HEK 203 cells (so in the source)
From the text: as §1

[10] = tested on: CD subjects
From the text: One cohort of 24 subjects was planned, with a 2:1 randomization (drug:placebo) for once daily dosing on Days 1, 2 and 3. On Day 2, all subjects would receive a 2.5 gram oral gluten challenge in single blind fashion.
Safety measures included monitoring of AEs, standard clinical panels for chemistry, hematology, and urinalysis, pregnancy screening, EKG, vital signs and physical exam findings.
Spontaneous adverse events collected throughout the study were categorized according to WHO adverse reaction terminology and evaluated for duration, intensity, and possible association with the study drug per ICH guidelines. In addition, the following procedures were performed at various points throughout the course of the study: vital signs, complete physical exams, 12-lead electrocardiograms, full clinical (safety) laboratory analyses, serum pregnancy, urine drug screen and HIV and hepatitis serologies.
All adverse events reported during the study were listed, documenting course, severity, and outcome and summarized by treatment, giving the number of subjects who experienced an adverse event, the maximum severity, and body system. GI adeverse events for each arm were tabulated by subject count and compared via Fisher's exact test.
EKG results were classified as normal and abnormal. PR, RR, QRS, QT, and QTc intervals will be carefully examined and abnormalities tabulated.

[11] = Plasma drug levels, multi-dose trial; format: in vivo, human; conditions: 3 times a day for 10 days; llq 0.5 ng/ml
[12] = tested on: Salmonella and E. coli strains; assay: Ames test (bacterial reverse mutation assay); conditions: up to 5000 μg per plate, with and without metabolic activation
[13] = Stability of drug substance; format: physicochemical; conditions: room temperature
[14] = dogs, up to 9 mg/kg daily for 4 weeks
[15] = oral once daily for 28 days up to 1000 mg/kg
[16] = 24 healthy adults, 3, 12, or 36 mg or placebo, single dose
[17] = Phase IIa, preliminary observations
[18] = CD subjects, 12 mg once daily Days 1-3, N = 14
[19] = Related = Possible, probably, definite combined causalities, 12 mg, N = 14

T1 sequence (Q12809 whole entry): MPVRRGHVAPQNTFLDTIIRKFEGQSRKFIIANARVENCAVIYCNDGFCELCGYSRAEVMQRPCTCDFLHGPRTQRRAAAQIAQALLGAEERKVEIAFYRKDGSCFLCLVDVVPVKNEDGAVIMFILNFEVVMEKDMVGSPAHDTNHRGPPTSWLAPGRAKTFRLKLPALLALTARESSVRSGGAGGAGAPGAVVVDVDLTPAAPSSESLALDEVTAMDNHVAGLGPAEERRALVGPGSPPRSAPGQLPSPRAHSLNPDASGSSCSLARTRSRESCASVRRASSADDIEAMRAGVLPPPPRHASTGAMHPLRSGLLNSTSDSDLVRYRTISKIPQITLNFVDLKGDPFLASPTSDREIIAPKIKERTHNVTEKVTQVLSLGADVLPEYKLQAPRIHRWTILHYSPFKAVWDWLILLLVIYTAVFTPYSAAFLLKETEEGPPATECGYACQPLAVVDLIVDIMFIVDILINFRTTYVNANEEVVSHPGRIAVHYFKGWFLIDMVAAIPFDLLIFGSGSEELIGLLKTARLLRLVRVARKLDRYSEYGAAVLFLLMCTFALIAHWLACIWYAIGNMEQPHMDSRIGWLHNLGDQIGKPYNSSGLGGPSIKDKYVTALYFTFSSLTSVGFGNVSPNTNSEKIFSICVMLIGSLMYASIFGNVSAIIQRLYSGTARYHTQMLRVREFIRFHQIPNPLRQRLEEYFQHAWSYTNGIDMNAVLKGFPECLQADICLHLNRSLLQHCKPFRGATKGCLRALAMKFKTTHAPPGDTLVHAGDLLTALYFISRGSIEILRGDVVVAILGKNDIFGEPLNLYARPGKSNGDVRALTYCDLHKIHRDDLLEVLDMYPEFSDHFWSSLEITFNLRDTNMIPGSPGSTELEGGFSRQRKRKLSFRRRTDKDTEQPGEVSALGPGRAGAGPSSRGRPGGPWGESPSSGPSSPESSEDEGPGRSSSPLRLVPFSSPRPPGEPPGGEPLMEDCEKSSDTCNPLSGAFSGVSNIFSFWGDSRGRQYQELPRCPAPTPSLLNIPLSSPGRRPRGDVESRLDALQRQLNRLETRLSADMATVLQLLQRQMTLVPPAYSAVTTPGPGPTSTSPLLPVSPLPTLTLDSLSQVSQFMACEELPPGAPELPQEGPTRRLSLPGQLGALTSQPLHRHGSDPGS

**Q.** With `CC(C)C[C@H](NC(=O)[C@@H](NC(=O)CNC(=O)CN)C(C)C)C(=O)N[C@H](C(=O)N[C@@H](CCC(N)=O)C(=O)N1CCC[C@H]1C(=O)NCC(=O)O)C(C)C` [AT-1001] (H-GGVLVQPG-OH) as the molecule, how does the “Passage into the submucosa or the vasculature” value ([1]; fluorescent FITC labeling) read?
**A.** The value was “measurable amounts of the antagonist do not cross into the submucosa or the vasculature”.

**Q.** And the Systemic toxicities ([1]; supra-therapeutic dosing in animals)?
**A.** Its Systemic toxicities is “devoid of significant systemic toxicities”.

**Q.** What about the Systemic absorption ([1]; supra-therapeutic dosing in animals, multi-particulate oral formulation) of the same molecule?
**A.** Its Systemic absorption is “not systemically absorbed to any significant extent”.

**Q.** What about the Signs of toxicity ([2]; Beagle dogs, single dose up to 5 mg/kg intravenously, observed 14 days) of the same molecule?
**A.** The Signs of toxicity was “no signs of toxicity were observed”.

**Q.** What about the “Clinical signs of toxicity” value ([2]; dogs, enteric-coated beads 20 mg/kg day 1, 40 mg/kg day 2) of the same molecule?
**A.** The value was “no clinical signs of toxicity were noted”.

**Q.** And the “Total protein and globulin levels” value ([2]; dogs, enteric-coated beads 20 mg/kg day 1, 40 mg/kg day 2, 24 hr after 40 mg/kg)?
**A.** Its value is “slightly elevated”.

**Q.** What about the “Treatment-related deaths and appearance” value ([2]; dogs, enteric-coated beads orally up to 9 mg/kg daily for 4 weeks) of the same molecule?
**A.** Its value is “No treatment-related deaths occurred and all dogs appeared normal”.

**Q.** What about the “Body weights, body weight gains, ophthalmic observations and EKG readings” value [2, 14] of the same molecule?
**A.** The value was “unaffected by treatment”.

**Q.** What about the “Gross necropsy or histopathology findings” value [2, 14] of the same molecule?
**A.** The value was “None of the gross necropsy or histopathology findings were considered to be treatment-related”.

**Q.** What about the Serious adverse events [3] of the same molecule?
**A.** Its Serious adverse events is “No Serious Adverse Events (SAEs)”.

**Q.** What about the “Severity of adverse events” value [3] of the same molecule?
**A.** The value was “all mild in severity”.

**Q.** What about the “Structural or numerical chromosome aberrations” value [4] of the same molecule?
**A.** Its value is “negative for inducing structural or numerical chromosome aberrations”.

**Q.** And the “Effects on the EKG” value [5]?
**A.** The value was “no notable effects”.

**Q.** And the “Body weight gain in recovery group” value ([6]; 28 day study, males at week 8 (recovery week 4))?
**A.** The value was “body weight gain was lower in the dose males at week 8”.

**Q.** What about the “Treatment-related findings, 14 day repeat-dose study” value ([6]; oral gavage once daily for 14 days up to 1000 mg/kg) of the same molecule?
**A.** The value was “no treatment-related clinical observations, clinical pathology changes, body weight or weight gain changes, organ weight changes, or gross or microscopic tissue changes”.

**Q.** And the “Food consumption, body weights/gains, ophthalmic observations” value [6, 15]?
**A.** Its value is “unaffected by treatment”.

**Q.** And the “Gross necropsy or histopathology findings” value [6, 15]?
**A.** The value was “No gross necropsy or histopathology findings were considered to be treatment-related”.

**Q.** What about the Treatment-related deaths [6, 15] of the same molecule?
**A.** The Treatment-related deaths was “No treatment-related deaths occurred”.

**Q.** What about the “Clinical observations, clinical chemistry, gross postmortem observations” value ([6]; single dose intravenously up to 5 mg/kg) of the same molecule?
**A.** The value was “no clinical observations, clinical chemistry changes, or gross postmortem observations”.

**Q.** And the Serious adverse events [7, 16]?
**A.** The Serious adverse events was “No Serious Adverse Events (SAEs)”.

**Q.** What about the “Severity of adverse events” value [7, 16] of the same molecule?
**A.** The value was “mild or moderate in severity”.

**Q.** And the “Clinically significant trends (clinical laboratory, vital sign, EKG, physical examination)” value ([7]; single dose trial)?
**A.** Its value is “No clinically significant treatment-related trends; also recorded: No Clinically Significant trends related to safety”.

**Q.** And the “Safety and tolerability of multiple oral doses” value ([8]; Phase IIa patient population)?
**A.** Its value is “demonstrated”.

**Q.** What about the Serious adverse events ([8]; Phase IIa, 0.25-8 mg TID 14 days, preliminary observations) of the same molecule?
**A.** The Serious adverse events was “No Serious Adverse Events (SAEs)”.

**Q.** And the “Clinically significant trends related to safety” value [8, 17]?
**A.** The value was “No Clinically Significant trends related to safety”.

**Q.** What about the “Severity of adverse events” value [8, 17] of the same molecule?
**A.** The value was “mild or moderate in severity”.

**Q.** And the “Effect on IKr current” value [9]?
**A.** Its value is “None of the concentrations of AT-1001 caused statistically significant effects”.

**Q.** What about the “Overall safety and tolerability” value ([10]; 12 mg in CD subjects) of the same molecule?
**A.** Its value is “generally safe, well tolerated”.

**Q.** What about the “(%) of serious AEs” value ([10]; 12 mg, N = 14) of the same molecule?
**A.** The value was “(0) %”.

**Q.** What about the “Number of serious AEs” value ([10]; 12 mg, N = 14) of the same molecule?
**A.** Its value is 0.

**Q.** What about the “Gastrointestinal Disorders, Subject Count (%)” value ([10]; 12 mg, N = 14, p 0.018 vs placebo) of the same molecule?
**A.** The value was 6 (43%).

**Q.** And the “Number of subjects reporting an AE” value ([10]; CD subjects, 12 mg once daily Days 1-3, 2.5 g gluten Day 2, N = 14)?
**A.** The value was 10.

**Q.** What about the “(%) of subjects discontinued study due to AE” value [10, 18] of the same molecule?
**A.** The value was “(0) %”.

**Q.** And the “(%) of subjects reporting an AE” value [10, 18]?
**A.** Its value is “(71) %”.

**Q.** What about the “Number of subjects discontinued study due to AE” value [10, 18] of the same molecule?
**A.** Its value is 0.

**Q.** And the “Total number of AEs reported” value [10, 18]?
**A.** Its value is 32.

**Q.** And the “Abdominal Discomfort, Subject Count (%)” value ([10]; CD-related, 12 mg, N = 14)?
**A.** The value was 0 (0%).

**Q.** And the “Constipation, Subject Count (%)” value ([10]; CD-related, 12 mg, N = 14)?
**A.** Its value is 0 (0%).

**Q.** And the “Flatulence, Subject Count (%)” value ([10]; CD-related, 12 mg, N = 14)?
**A.** The value was 2 (14%).

**Q.** And the “Vomiting, Subject Count (%)” value ([10]; CD-related, 12 mg, N = 14)?
**A.** The value was 3 (21%).

**Q.** What about the “Diarrhoea, Subject Count (%)” value ([10]; CD-related, 12 mg, N = 14, p 0.017 vs placebo) of the same molecule?
**A.** Its value is 2 (14%).

**Q.** And the “Abnormalities in safety laboratory tests, vital signs, ECG, physical examinations” value ([10]; Phase Ib study)?
**A.** The value was “no clinically significant abnormalities”.

**Q.** And the “Deaths, SAEs, significant AEs, withdrawals due to AEs” value ([10]; Phase Ib study, 21 CD subjects, 12 mg or placebo for three days)?
**A.** Its value is “no serious adverse events (SAEs); also recorded: no deaths, SAEs, significant AEs, or withdrawals due to AEs”.

**Q.** And the “(%) of related AEs” value [10, 19]?
**A.** Its value is “(3) %”.

**Q.** And the “Number of related AEs” value [10, 19]?
**A.** The value was 1.

**Q.** And the “Dyspepsia, Subject Count (%)” value ([10]; not CD-related, 12 mg, N = 14)?
**A.** Its value is 3 (21%).

**Q.** And the “Eructation, Subject Count (%)” value ([10]; not CD-related, 12 mg, N = 14)?
**A.** Its value is 1 (7%).

**Q.** What about the “Gastrooesophageal Reflux, Subject Count (%)” value ([10]; not CD-related, 12 mg, N = 14) of the same molecule?
**A.** The value was 1 (7%).

**Q.** And the “Nausea, Subject Count (%)” value ([10]; not CD-related, 12 mg, N = 14)?
**A.** The value was 4 (29%).

**Q.** What about the “Stomach Discomfort, Subject Count (%)” value ([10]; not CD-related, 12 mg, N = 14) of the same molecule?
**A.** The value was 2 (14%).

**Q.** And the solubility?
**A.** The solubility was greater than 1000 µg/mL.

**Q.** And the Plasma drug levels [11]?
**A.** The Plasma drug levels was “No measurable plasma drug levels”.

**Q.** What about the Mutagenic activity [12] of the same molecule?
**A.** Its Mutagenic activity is “negative for mutagenic activity”.

**Q.** And the Stability [13]?
**A.** The Stability was “up to 1 year”.
